Results taken from patent publication US11013696B2, “Lipids and lipid compositions for the delivery of active agents” (Novartis AG, priority 2013, dated 2021).

Legend:
[1] = Percent encapsulation of mRNA in lipid nanoparticles (Quant-iT Ribogreen); format: physicochemical; details: for % encapsulation mRNA Leptin: Table 2, leptin mRNA in LNP with the cationic lipid
Summary of the method: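 LNPs made by T-junction mixing of ethanolic lipids (cationic lipid:DSPC:cholesterol:PEG lipid 40:10:38:2, N:P 4:1) with mRNA in citrate pH 5.8-6.0, then dialysed against PBS overnight at 4 °C. RiboGreen fluorescence (ex 480/em 520 nm) measured in TE ± 0.75% Triton X-100; encapsulation = (total − free)/total.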

RSV F protein = assay: RSV immunogenicity: IgG titers after two IM immunizations with vA375 RNA expressing RSV-F in LNPs; format: in vivo, BALB/c mice; details: IM days 0 and 21, two weeks after two immunizations
[2] = Entrapment and RNA concentration of RSV-F replicon liposomes (Quant-iT RiboGreen); format: physicochemical
Procedure: RNA was encapsulated in liposomes made essentially by the method of Geall et al. (2012) PNAS vol. 109 (36): 14604-14609, Jeffs et al. (2005) Pharmaceutical Research 22 (3):362-372 and Maurer et al. (2001) Biophysical Journal, 80: 2310-2326 The liposomes were made of 10% DSPC (zwitterionic), 40% cationic lipid, 48% cholesterol and 2% PEG-conjugated DMG (2 kDa PEG). These proportions refer to the % moles in the total liposome.
Briefly, lipids were dissolved in ethanol (2 ml), a RNA replicon was dissolved in buffer (2 ml, 100 mM sodium citrate, pH 6) and these were mixed with 2 ml of buffer followed by 1 hour of equilibration. The mixture was then dialized overnight against 1×PBS. The resulting product contained liposomes, with ˜70-95% encapsulation efficiency. For in vitro and in vivo experiments formulations were diluted to the required RNA concentration with 1×PBS.
The percentage of encapsulated RNA and RNA concentration were determined by Quant-iT RiboGreen RNA reagent kit (Invitrogen), following manufacturer's instructions. The ribosomal RNA standard provided in the kit was used to generate a standard curve. Liposomes were diluted 10× or 100× in 1×TE buffer (from kit) before addition of the dye. Separately, liposomes were diluted 10× or 100× in 1×TE buffer containing 0.5% Triton X before addition of the dye (to disrupt the liposomes and thus to assay total RNA). Thereafter an equal amount of dye was added to each solution and then ˜180 μL of each solution after dye addition was loaded in duplicate into a 96 well tissue culture plate. The fluorescence (Ex 485 nm, Em 528 nm) was read on a microplate reader. All liposome formulations were dosed in vivo based on the encapsulated amount of RNA.
(§1) A self-replicating replicon encoding RSV F protein was administered to BALB/c mice, 8 animals per group, by bilateral intramuscular vaccinations (50 μL per leg) on days 0 and 21 with the replicon (0.1 and 1 ng) formulated as liposomes with the lipids described below. All liposomes tested were composed of 40% cationic lipid, 10% DSPC, 48% cholesterol and 2% PEG-DMG with similar amounts of RNA. The liposomes were all prepared using the same technique as described above.
(§2) % entrapment (% E), Concentration of RNA (Conc), particle size measured by DLS, and polydispersity reported by DLS of LNPs prepared with different cationic lipids

[3] = Particle size and polydispersity by DLS of RSV-F replicon LNPs; format: physicochemical
Procedure: as §1, §2

[4] = RSV-F replicon LNP prepared for 1st IM
[5] = RSV-F replicon LNP prepared for 2nd IM

Row | SMILES | % Encap. ([1]; FLuc mRNA) | % Encap. ([1]; Gluc mRNA) | % encapsulation mRNA Leptin [1] | % Encap. ([1]; hFIX mRNA) | % Encap. ([1]; hLeptin mRNA) | % Encap. ([1]; mEPO mRNA) | Immunogenicity (2wp2, log10 IgG titers) (RSV F protein; 0.1 ng vA375 RNA) | Immunogenicity (2wp2, log10 IgG titers) (RSV F protein; 1 ng vA375 RNA) | % E (% entrapment) [2, 4] | % E (% entrapment) [2, 5] | PDI [3, 4] | Size [3, 4] | PDI [3, 5] | Size [3, 5]
1 | CCCCCCCCCCCCC(CCOC(=O)CCCCC(COC(=O)CCCCCCC)COC(=O)CCCCCCC)OC(=O)OCCCN(CC)CC (stereo not shown) [Example 1, 2-(10-dodecyl-3-ethyl-8,14-dioxo-7,9,13-trioxa-3-azaoctadecan-18-yl)propane-1,3-diyl dioctanoate] | 94.7% | 97.3% | 97.1% | 94.0% | 97.1% | 95.8% | 3.98 log10 IgG titers | 4.22 log10 IgG titers | 91.11% | 87.13% | 0.105 | 139.1 nm | 0.045 | 131.3 nm
2 | CCCCCCCCCCCCC(CCOC(=O)CCCCC(OCCCCCCCC)OCCCCCCCC)OC(=O)OCCCN(CC)CC (stereo not shown) [Example 16, 3-(((3-(diethylamino)propoxy)carbonyl)oxy)pentadecyl 6,6-bis(octyloxy)hexanoate] | 96.8% | 97.9% | 97.7% | 96.9% | 98.1% | 97.9% |  |  |  |  |  |  |  | 
3 | CCCCCCCCCCCCC(CCOC(=O)CCCCC(OCC(CC)CCCC)OCC(CC)CCCC)OC(=O)OCCCN(CC)CC (stereo not shown) [Example 18, 3-(((3-(diethylamino)propoxy)carbonyl)oxy)pentadecyl 6,6-bis((2-ethylhexyl)oxy)hexanoate] |  |  | 97.1% |  |  |  | 3.5 log10 IgG titers | 4.26 log10 IgG titers | 96.15% | 96.25% | 0.13 | 132.2 nm | 0.065 | 139.8 nm
4 | CCCCCCCCCC(=O)OCCC(CC(CCCCCCCC)CCCCCCCC)OC(=O)OCCCN(C)C (stereo not shown) [Example 70, 3-(((3-(dimethylamino)propoxy)carbonyl)oxy)-5-octyltridecyl decanoate] |  |  | 98.3% |  |  |  | 3.90 log10 IgG titers | 4.37 log10 IgG titers | 90.75% | 94.24% | 0.121 | 133.7 nm | 0.118 | 141.7 nm
5 | CCCCC/C=C\C/C=C\CCCCCCCC(=O)OCC(COC(=O)CCCCCCC/C=C\C/C=C\CCCCC)OC(=O)CCC(CCCCCCCCCCCC)OC(=O)OCCCN(C)C (stereo not shown) [Example 80, (9Z,9′Z,12Z,12′Z)-2-((4-(((3-(dimethylamino)propoxy)carbonyl)oxy)hexadecanoyl)oxy)propane-1,3-diyl bis(octadeca-9,12-dienoate)] | 85.3% |  |  |  |  | 96.2% |  |  |  |  |  |  |  | 
6 | CCCCC/C=C\C/C=C\CCCCCCCCC(CCC(=O)OC(COC(=O)CCCCCCC)COC(=O)CCCCCCC)OC(=O)OCCCN(C)C (stereo not shown) [Example 94, 2-(((13Z,16Z)-4-(((3-(dimethylamino)propoxy)carbonyl)oxy)docosa-13,16-dienoyl)oxy)propane-1,3-diyl dioctanoate] | 93.7% | 95.9% | 98.1% | 96.9% | 98.1% | 96.4% |  |  |  |  |  |  |  | 
